# Legend:
# Type in all cases: cell-based, human
# [1] = system: BEAS-2B cells; experiment: Seahorse Cell Mito stress test (OCR); conditions: for ATP production / basal respiration / maximal respiration: after exposure to PM2.5 from both Taiyuan and Guangzhou (200 μg/mL), metabolite 200 μM
# Protocol: (§1) To detect the cell viability, different concentrations (25 μM, 50 μM, 100 μM, and 200 μM) of selected metabolic markers were added to BEAS-2B cell cultures for 24 h, followed by 200 μg/mL PM2.5 samples for another 24 h. After exposure, 10 μL CCK-8 with 100 μL mediums were added to the cells and incubated for 1.5 h, the absorption was detected at 450 nm to assess cell viability. Agilent Seahorse assays were used to evaluate the effects of metabolic markers on mitochondrial functions. The OCR of cells was determined after being treated by both metabolic markers (200 μM) and PM2.5 samples (200 μg/mL) (n=3).
# (§2) Cell Mito stress test: BEAS-2B cells were seeded in the XF 96-well Seahorse assay miniplates with a density of 20,000 cells/well in BEGM™ bronchial epithelial cell growth medium and incubated for 24 h at 37° C. After exposure, the cells were washed with XF assay medium including 10 mM glucose, 1 mM sodium pyruvate, and 2 mM L-glutamine (adjusted pH to 7.4 with 0.1 M NaOH) and incubated for 1 h in a 37° C. non-CO2 incubator. Before assay, the sensor cartridge was hydrated in Agilent Seahorse XF Calibrant at 37° C. in a non-CO2 incubator overnight, and oligomycin (port A final 1 μM), carbonyl cyanide-4-(trifluoromethoxy) phenylhydrazone (FCCP) (port B final 1 μM chosen from the optimization assay) and rotenone antimycin A (port C final 0.5 μM) were added to the corresponding ports of the hydrated sensor cartridge. Then the cartridge was transferred to the Seahorse analyzer (Agilent Technologies) to calibrate the period for approximately 20 min. When the calibration has been completed, the utility plate was removed and the cell miniplate was placed to start the assay. The assay was divided into four parts. After the equilibration period was three basal assays, and then oligomycin was added to inhibit the complex V (ATP synthase) for three cycles, FCCP was followed to stimulate maximal respiration in mitochondria by uncoupling ATP synthesis from electron transport. Lastly, rotenone plus antimycin A was added to determine the non-mitochondrial respiratory rate. Oxygen consumption rate (OCR) was used to assess the mitochondrial respiratory change.
# [2] = system: Phospho1; experiment: qPCR gene expression, Phospho1
# Protocol: (§3) Total RNA was extracted from BEAS-2B cells with RNAiso plus kit (TaKaRa, Shiga, Japan) according to the manufacturer's instructions. Reverse transcription of cDNA synthesis and real-time quantitative polymerase chain reaction (qPCR) were performed as described previously. All primers synthesized at BGI Co., Ltd. (Hong Kong, China) were described in Table 2.
# [3] = system: BEAS-2B cells; experiment: Cell viability (CCK-8) of BEAS-2B cells given metabolic markers, then PM2.5; conditions: metabolite 25-200 μM for 24 h, then 200 μg/mL PM2.5 for 24 h
# Protocol: as §1
# [4] = system: PGC-1α; experiment: qPCR gene expression, PGC-1α; conditions: repressed by PM2.5 exposure
# Protocol: as §3
# [5] = system: BEAS-2B cells; experiment: Seahorse substrate oxidation stress test (glucose / fatty acid oxidation); conditions: for maximal respiration of cells with oxidation inhibitor: cells with or without PM2.5
# Protocol: as §2
# The substrate oxidation stress test was used to assess the specific mitochondrial substrates that were relevant or required for cellular phenotype and function. Two different inhibitors (UK50099 for the glucose pathway and etomoxir for the long-chain fatty acids pathway) were added before the Mito stress test and the following process was the same with the Mito stress test.
# [6] = system: GFAT; experiment: qPCR gene expression, GFAT; conditions: after exposure to PM2.5
# Protocol: as §3
# [7] = system: OGT; experiment: qPCR gene expression, OGT; conditions: after PM2.5 exposure
# Protocol: as §3
Compound,ATP production [1],basal respiration [1],maximal respiration [1],cell viability reduced by PM2.5 exposure [3],also measured
"CC(=O)N[C@@H](CC(=O)O)C(=O)O [NAA, N-acetyl-aspartic acid]",significantly increase,significantly increase,significantly increase,,
"C[N+](C)(C)CCOP(=O)([O-])O [Pc, phosphocholine]",significantly increase,significantly increase,significantly increase,improve the cell viability,"Phospho1 expression ([2]; after PM2.5 exposure): greatly downregulated; Phospho1 expression ([2]; normal cells): no effects; effect against adverse impacts of the TY1 panel on mitochondrial functions ([1]; cells exposed to TY1): protective effects; PGC-1α expression [4]: rescued; maximal respiration, fatty acid oxidation test ([5]; only in the PM2.5-exposed lung cells): significantly increased"
"N#C/C(=C\c1cn(-c2ccccc2)c2ccccc12)C(=O)O [UK5099, reference compound]",,,,,maximal respiration of cells with oxidation inhibitor [5]: remarkably reduced
CN(CC(=O)O)C(=N)N [creatine],,,,improve the cell viability,
"CCOC(=O)[C@@]1(CCCCCCOc2ccc(Cl)cc2)CO1 [etomoxir, reference compound]",,,,,maximal respiration of cells with oxidation inhibitor [5]: did not change
NCCS(=O)(=O)O [taurine],,,,improve the cell viability,
uridine diphosphate N-acetylglucosamine [UDP-GlcNAc],significantly increase,significantly increase,significantly increase,,GFAT expression [6]: interacted with the decline of GFAT; OGT expression [7]: partially rescued; increase of cells' glucose oxidation ([5]; cultures with and without PM2.5): 1.6 fold

# Reference: patent US20250268926A1, “METHOD AND COMPOSITION FOR TREATING, ALLEVIATING OR PREVENTING A DISEASE OR CONDITION CAUSED BY AIR POLLUTANT” (Hong Kong Baptist University, priority 2024, published 2025)
